Data published in publication PMC8667925, “New 1,2,4-oxadiazole derivatives with positive mGlu4 receptor modulation activity and antipsychotic-like properties” (Journal of Enzyme Inhibition and Medicinal Chemistry, 2021).
pEC50: −log10 of the molar value. Entries after “also recorded” stand apart in the source; their conditions may differ.

Columns and labels:
[1] = molecular target: T1, mGlu4 receptor (Homo sapiens, UniProt Q14833); experiment: forskolin-stimulated cAMP assay, PAM mode (EC20 of L-Glu), T-REx 293 cells; assay type: cell-based; settings: for mGlu4 receptor PAM activity / pEC50 / Emax: PAM mode; for mGlu4 receptor PAM activity / Emax: human mGlu4; for pEC50: EC20 (3 µM) L-Glu, T-REx 293 cells expressing human mGlu4 receptor; for pEC50 / Emax / Fold shift of L-Glu dose-response curve: SEM where given; for Emax: T-REx-293, read-out: GluMax; for Fold shift of L-Glu dose-response curve: in the presence of 10 µM of compound
T1 construct: mGlu4 receptor NM_000841, mGlu7 receptor NM_000844.2, and mGlu8 receptor NM_000845; expressed in transfected cells; host or cells: T-REx 293
Description: The activity of the compounds was assessed in vitro in a forskolin-stimulated cAMP assay in T-REx 293 cells expressing human mGlu4 receptors in the presence of an EC20 concentration of L-Glu; a PAM was identified if it potentiated cAMP inhibition by the Gi/o-dependent pathway of mGlu4 receptor activation; i.e. if it was able to produce a leftward shift in the potency of the endogenous agonist.
Determination of the intracellular cAMP through a homogeneous time-resolved fluorescence (HTRF) cAMP dynamic 2 kit from Cisbio (Codolet, France) was described previously by Chruścicka et al.[91]. Briefly, cells were grown in DMEM supplemented with 10% foetal bovine serum (FBS) (tetracycline free). Forty-eight hours before the experiments, mGlu receptor expression was induced by the addition of 0.75 µg/mL tetracycline. Twenty hours before the experiment, FBS and L-Glu were removed from the medium. Thereafter, the cells were scraped and centrifuged. A cell pellet was suspended in Hanks-HEPES (130 mM NaCl, 5.4 mM KCl, 1.8 mM CaCl2, 0.8 mM MgSO4, 0.9 mM NaH2PO4, 20 mM HEPES, and 3.25 mM glucose; pH 7.4). Then, the cell suspension was incubated in the presence of 10 µM forskolin (or 3 µM forskolin for mGlu7 receptor), the agonist L-glutamate and a compound for 5 min. Next, 10 µl of the cell suspension was mixed with 5 µl of cAMP-d2 conjugate and 5 µL of anti-cAMP cryptate conjugate. After 1 h of incubation at rt, the fluorescence at 620 nm and 665 nm was read (Tecan Infinite M1000). The results were calculated as the 665 nm/620 nm ratio multiplied by 10^4. Each sample was prepared in triplicate.
Statistical calculations were performed using GraphPad Prism 5.04 software (GraphPad Software, La Jolla, CA, USA). The curves were fitted to a 3-parametric logistic equation, allowing for the determination of EC50 values. Each data point was analysed in triplicate.

[2] = system: Albino Swiss mice; experiment: modified stress-induced hyperthermia (SIH) in singly housed mice; assay type: in vivo
Description: (§1) The compounds were dissolved in a small amount of 100% EtOH and then adjusted with 20% cyclodextrin, and the pH was adjusted to 6.0. The investigated compounds were administered intraperitoneally (i.p.) 60 min before the behavioural test. Control drugs i.e. diazepam, clozapine and imipramine (Sigma–Aldrich, St. Louis, USA), were administered i.p. 60 min before the behavioural test. Cyclodextrin (20%) was used as a vehicle. All solutions were prepared immediately prior to the experiments and were administered at a constant volume of 10 ml/kg.
The procedure for modified stress-induced hyperthermia was adapted from Van der Heyden[93] and based on the procedure introduced by Borsini[94]. Each experimental group consisted of eight to ten animals. The animals were housed individually in a 26 × 21 × 14 cm Macolon cage 24 h before testing. For this assay, the body temperature was measured for each mouse at t = 0 min (T1) and t = +15 min (T2). Albino Swiss mice were placed into a new cage immediately following T1, with the difference in temperature (T2−T1) used as the measure of stress-induced hyperthermia. […] A comparison between T1 in vehicle-treated mice and those administered the test compound was used to determine whether the agent affects body temperature alone. Diazepam (5 mg/kg) was used as the positive control. The rectal temperature was measured to the nearest 0.1 °C with a Physitemp Theralert thermometer, TH-5, Clifton NJ, USA, with the temperature sensor for mice, Type T, Copper-Constantan Thermocouple, Braintree Scientific Inc. The lubricated thermistor probe (2 mm diameter) was inserted 20 mm into the rectum. The mouse was held at the base of the tail during this determination, and the thermistor probe was left in place until a constant reading was obtained for 15 s. The effects of the investigated compounds on the SIH response were investigated after administration of the compounds at doses of 5, 10 and 20 mg/kg.

[3] = system: Albino Swiss mice; experiment: DOI-induced head twitch test (HTR); assay type: in vivo; settings: over the doses 2.5, 5 and 10 mg/kg i.p.; DOI 2.5 mg/kg i.p.
Description: as §1
The experiments were performed according to the procedure described in our previous studies[75]^,[80]. Briefly, to habituate mice to the experimental environment, each animal was transferred to a 12 cm (diameter) × 20 cm (height) glass cage lined with sawdust 30 min before treatment. Test compounds were administered intraperitoneally (i.p.) at doses of 2.5, 5, and 10 mg/kg body weight 60 min before the test was performed. The head twitch response (HTR) in mice was induced by DOI (2.5 mg/kg, i.p.). Immediately after treatment, the number of head twitches was counted during a 20 min session. Haloperidol and clozapine were used as the reference compounds at active doses of 0.2 and 5 mg/kg, respectively.

T1 sequence (Q14833 33-912): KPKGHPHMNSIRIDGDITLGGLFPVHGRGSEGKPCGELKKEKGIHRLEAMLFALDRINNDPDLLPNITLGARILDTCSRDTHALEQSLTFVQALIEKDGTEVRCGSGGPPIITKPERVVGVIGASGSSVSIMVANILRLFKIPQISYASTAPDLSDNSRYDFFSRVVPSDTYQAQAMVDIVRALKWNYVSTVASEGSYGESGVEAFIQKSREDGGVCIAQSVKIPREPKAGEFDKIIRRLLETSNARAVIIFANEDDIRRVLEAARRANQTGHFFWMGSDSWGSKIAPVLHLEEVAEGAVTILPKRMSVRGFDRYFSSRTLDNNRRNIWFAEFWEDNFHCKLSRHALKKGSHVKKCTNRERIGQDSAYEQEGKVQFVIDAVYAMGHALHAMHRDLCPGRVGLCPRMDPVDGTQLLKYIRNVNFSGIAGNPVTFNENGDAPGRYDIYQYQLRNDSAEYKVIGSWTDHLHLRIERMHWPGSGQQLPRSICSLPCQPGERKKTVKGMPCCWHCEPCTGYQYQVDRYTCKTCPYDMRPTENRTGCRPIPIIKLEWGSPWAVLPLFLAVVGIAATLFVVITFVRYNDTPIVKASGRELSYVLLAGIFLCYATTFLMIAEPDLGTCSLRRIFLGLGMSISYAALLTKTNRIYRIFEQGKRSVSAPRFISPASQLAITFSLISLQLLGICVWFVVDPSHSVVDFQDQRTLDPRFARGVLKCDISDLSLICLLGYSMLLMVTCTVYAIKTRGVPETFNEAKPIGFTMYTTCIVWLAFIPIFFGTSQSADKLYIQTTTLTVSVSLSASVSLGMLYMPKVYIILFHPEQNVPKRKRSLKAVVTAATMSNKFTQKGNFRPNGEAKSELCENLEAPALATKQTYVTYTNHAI

| Structure (SMILES) | mGlu4 receptor PAM activity [1] | pEC50 [1] | Emax [1] [%] | Fold shift of L-Glu dose-response curve [1] | effect on SIH response ([2]; 5 mg/kg i.p., 60 min before test) | effect on SIH response ([2]; over the doses 5, 10 and 20 mg/kg i.p.) | effect on DOI-induced HTR [3] |
| --- | --- | --- | --- | --- | --- | --- | --- |
| O=C(Nc1ccc(-c2noc(-c3ccccc3Cl)n2)c(Cl)c1)c1cccc(F)n1 [Compound 50] | unable to modulate mGlu4 receptor activity | – | – | – | – | – | – |
| O=C(Nc1ccc(-c2noc(-c3ccccc3)n2)c(C(F)(F)F)c1)c1ccccn1 [Compound 59] | – | 6.13 | 150 | 7.6 | – | – | – |
| O=C(Nc1ccc(-c2noc(-c3ccc(F)cc3Cl)n2)c(Cl)c1)c1ccccn1 [Compound 53] | – | 5.87 | 119 | 2.1 | – | – | – |
| COc1cc(NC(=O)c2ccccn2)ccc1-c1noc(-c2ccc(F)cc2Cl)n1 [Compound 38] | – | 5.70 | 124 | 4.6 | – | – | – |
| COc1cc(NC(=O)c2nccs2)ccc1-c1noc(-c2ccccc2Cl)n1 [Compound 46] | – | 5.66 | 126 | 3.6 | – | – | – |
| COc1cc(NC(=O)c2nc(Cl)ccc2Cl)ccc1-c1noc(-c2ccccc2F)n1 [Compound 48] | did not potentiate cAMP inhibition | – | – | – | – | – | – |
| COc1cc(NC(=O)c2ccccn2)ccc1-c1noc(-c2ccc(Cl)cc2)n1 [Compound 36] | – | 5.70 | 157 | 2.0 | – | – | – |
| CN1C(=O)CN=C(c2ccccc2)c2cc(Cl)ccc21 [diazepam, reference compound] | – | – | – | – | significantly reduced SIH | – | – |
| COc1cc(NC(=O)c2ncc(Cl)cc2F)ccc1-c1noc(-c2ccccc2Cl)n1 [Compound 40] | did not potentiate cAMP inhibition | – | – | – | – | – | – |
| COc1cc(NC(=O)c2cccc(Cl)n2)ccc1-c1noc(-c2ccccc2Cl)n1 [Compound 41] | – | 5.72 | 115 | 4.1 | – | – | – |
| COc1ccc(Cl)c(C(=O)Nc2ccc(-c3noc(-c4ccccc4Cl)n3)c(OC)c2)n1 [Compound 42] | did not potentiate cAMP inhibition | – | – | – | – | None of the administered doses of compound 42 statistically affected the SIH; also recorded: failed to alter SIH | failed to alter SIH and block DOI-induced HTR |
| COc1cc(NC(=O)c2ccccn2)ccc1-c1noc(-c2cccc(Cl)c2)n1 [Compound 35] | – | 5.28 | 145 | 2.2 | – | – | – |
| O=C(Nc1ccc(-c2noc(-c3ccccc3Cl)n2)cc1)c1ccccn1 [Compound 17d] | – | 5.43 | 116 | 1.8 | – | – | – |
| COc1ccc(-c2nc(-c3ccc(NC(=O)c4cccs4)cc3)no2)cc1 [Compound 17c] | not tolerated | – | – | – | – | – | – |
| COc1cc(NC(=O)c2ccncn2)ccc1-c1noc(-c2ccccc2Cl)n1 [Compound 45] | – | 5.51 | 118 | 3.1 | – | – | – |
| COc1ccccc1-c1nc(-c2ccc(NC(=O)c3ccccn3)cc2Cl)no1 [Compound 54] | – | 6.12 | 111 | 2.2 | – | – | – |
| COc1cc(NC(=O)c2cc(F)cc(F)n2)ccc1-c1noc(-c2ccccc2Cl)n1 [Compound 43] | – | 5.60 | 134 | 5.0 | – | – | – |
| Cc1cc(NC(=O)c2ccccn2)ccc1-c1noc(-c2ccccc2)n1 [Compound 61] | – | 5.78 | 128 | 5.1 | – | – | – |
| O=C(Nc1ccc(-c2noc(-c3ccccc3)n2)c(F)c1)c1ccccn1 [Compound 55] | – | 5.59 | 127 | 3.0 | – | – | – |
| O=C(Nc1ccc(-c2noc(-c3ccccc3Cl)n2)c(Cl)c1)c1cccc(Cl)n1 [Compound 51] | unable to modulate mGlu4 receptor activity | – | – | – | – | – | – |
| COc1cc(NC(=O)c2cccc(F)n2)ccc1-c1noc(-c2ccccc2F)n1 [Compound 47] | – | 6.05 | 121 | 6.9 | – | – | – |
| COc1cc(NC(=O)c2ccccn2)ccc1-c1noc(-c2ccccc2)n1 [Compound 33] | – | 5.74 | 130 | 5.3 | – | – | – |
